From publication PMC5094555, “Human Mitochondrial Cytochrome b Variants Studied in Yeast: Not All Are Silent Polymorphisms” (Human Mutation, 2016)

Tests used:
[1] = system: yeast complex III, cytochrome b p.His141Tyr; parameters: method as in Vallières et al. 2013; details: ref Vallières et al. 2013; cited from earlier work
[2] = system: yeast complex III, cytochrome b CysCysVal 133-135 ValLeuPro; parameters: method as in Fisher and Meunier 2005; details: ref Fisher and Meunier 2005; cited from earlier work
[3] = molecular target: yeast complex III, cytochrome b p.Ser172Gly (Saccharomyces cerevisiae, UniProt P00163, S172G); type: biochemical; details: this work
Method: Yeast mitochondria were prepared as in Lemaire and Dujardin (2008). Briefly, yeast grown in YPGal medium were harvested at mid‐log phase. Protoplasts were obtained by enzymatic digestion of the cell wall using zymolyase in an osmotic protection buffer. Mitochondria were then prepared by differential centrifugation following osmotic shock of the protoplasts. Mitochondrial samples were aliquoted and stored at −80°C. Concentration of complex III in the mitochondrial samples was determined from dithionite‐reduced optical spectra, using ε = 28.5 mM^−1/cm at 562 − 575 nm. Decylubiquinol‐cytochrome c reductase activities were determined at room temperature by measuring the reduction of cytochrome c (final concentration of 20 μM) at 550 nm versus 540 nm over 1‐min time course in 10 mM potassium phosphate pH 7, 0.01% (w/v) lauryl‐maltoside and 1 mM KCN. Mitochondria were added to obtain a final concentration of 5–30 nM of complex III. […] Initial rates were measured as a function of the decylubiquinol concentration. […]
Cytochrome c reduction activity was measured as described above in the presence of increasing concentrations of inhibitors (six to 10 different concentrations). […] The midpoint inhibition concentrations (IC50) were determined from the titrations and the IC50 values were normalized by the concentration of complex III.

[4] = system: malaria parasite complex III; parameters: method as in Biagini et al., 2008; details: atovaquone; malaria parasite enzyme; ref Biagini et al., 2008; cited from earlier work
[5] = system: yeast complex III, cytochrome b p.His141Phe; parameters: method as in Fisher and Meunier 2005; details: ref Fisher and Meunier 2005; cited from earlier work
[6] = molecular target: T1, yeast complex III (wild type) (Saccharomyces cerevisiae, UniProt P00163); parameters: method as in Vallières et al., 2013; details: atovaquone; per nM complex III; yeast enzyme; ref Vallières et al., 2013; read-out: IC50 (midpoint inhibition concentration); cited from earlier work
T1 construct: Mitochondria were added to obtain a final concentration of 5–30 nM of complex III; endogenous in cells; host or cells: mitochondria prepared from S. cerevisiae grown in YPGal (diploid strains)

bovine complex III = molecular target: T2, bovine complex III (Bos taurus, UniProt P00157); parameters: method as in Vallières et al., 2013; details: atovaquone; per nM complex III; bovine enzyme; ref Vallières et al., 2013; read-out: IC50 (midpoint inhibition concentration); cited from earlier work
T2 construct: catalytic activity of bovine and yeast complex III, using purified mitochondria; from tissue

[7] = system: yeast AD1-9 strains (wild type and cytochrome b mutants); assay: Respiratory growth assay with increasing concentration of drug; type: cell-based, Saccharomyces cerevisiae
Method: Diploids were used in the experiments, except for monitoring the sensitivity of respiratory growth to atovaquone, where the AD1‐9 series was used.
Yeast strains were grown in 5 ml of YPEth medium with increasing concentration of drug. Cultures were inoculated from 1‐day‐old cultures on YPG to an OD600 nm of 0.2 and incubated at 28°C with vigorous shaking to maintain good aeration. Cell densities measured as OD600 nm were estimated 2 or 3 days after inoculation.

O=C1C(O)=C([C@H]2CC[C@H](c3ccc(Cl)cc3)CC2)C(=O)c2ccccc21 [atovaquone]
atovaquone sensitivity (IC50 mutant/IC50 control) [1]: 0.5
atovaquone sensitivity (IC50 mutant/IC50 control) [2]: 3.5
atovaquone sensitivity (IC50 mutant/IC50 control) [3]: 1.1
IC50 [4]: ~3 nM
atovaquone sensitivity (IC50 mutant/IC50 control) [5]: 0.4
IC50 [6]: 4 nM
IC50 (bovine complex III): 75 nM
Sensitivity of respiratory growth to atovaquone ([7]; strain HS-p.Ser172Asn (humanised Qo site), versus control strain (Fig. 3C)): inhibited at slightly higher doses of atovaquone than the control strain
Sensitivity of respiratory growth to atovaquone ([7]; strain HS-p.Ser172Asn versus HS-p.Ser172Asp (Fig. 3C)): more sensitive
Sensitivity of respiratory growth to atovaquone ([7]; strain HS-p.Ser172Asp (humanised Qo site), versus control strain (Fig. 3C)): inhibited at slightly higher doses of atovaquone than the control strain
Sensitivity of respiratory growth to atovaquone ([7]; strain p.Ser172Asn, compared with p.Ser172Asp and p.Leu150Phe (Fig. 3B)): increased sensitivity compared with p.Ser172Asp
Sensitivity of respiratory growth to atovaquone ([7]; strain p.Ser172Gly, compared with p.Ser172Asp and p.Leu150Phe (Fig. 3B)): increased sensitivity compared with p.Ser172Asp
Sensitivity of respiratory growth to atovaquone ([7]; wt strain, compared with p.Ser172Asp and p.Leu150Phe (Fig. 3B)): increased sensitivity compared with p.Ser172Asp
